Results taken from ChEMBL document CHEMBL1201862, “PubChem BioAssay data set” (2004).
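Results reflect a 48-hour exposure of cells in 96-well plates to compound at five concentrations. GI50 = concentration required for 50% inhibition of growth.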 Activity calls are given as the source filed them. No stated cut-off is given here; in the data, active = GI50 up to about 1.1 µM and inactive = higher.

Assays:
Assay in all cases: NCI-60 cell line screen, 48 h
[1] = system: NCI-H460
[2] = system: CAKI-1
[3] = system: SNB-19
[4] = system: Malme-3M
[5] = system: K562
[6] = system: TK-10
[7] = system: NCI-H23
[8] = system: SNB-75
[9] = system: U-251
[10] = system: A498
[11] = system: MDA-MB-231
[12] = system: SK-MEL-28
[13] = system: A549
[14] = system: IGROV-1
[15] = system: SN12C
[16] = system: HCT-15
[17] = system: NCI-H522
[18] = system: UO-31
[19] = system: MDA-N
[20] = system: NCI/ADR-RES
[21] = system: OVCAR-4
[22] = system: EKVX
[23] = system: MCF7
[24] = system: MOLT-4
[25] = system: OVCAR-3
[26] = system: M14
[27] = system: T47D
[28] = system: Hs-578T
[29] = system: MDA-MB-435
[30] = system: COLO 205
[31] = system: SK-MEL-5
[32] = system: HOP-62
[33] = system: HOP-92
[34] = system: SR
[35] = system: OVCAR-8
[36] = system: SK-OV-3
[37] = system: RXF 393
[38] = system: UACC-257
[39] = system: PC-3
[40] = system: HT-29
[41] = system: SK-MEL-2
[42] = system: CCRF-CEM
[43] = system: BT-549
[44] = system: SW-620
[45] = system: OVCAR-5
[46] = system: KM12
[47] = system: 786-0
[48] = system: RPMI-8226
[49] = system: LOX IMVI
[50] = system: HCC 2998
[51] = system: DU-145
[52] = system: SF-268
[53] = system: UACC-62
[54] = system: ACHN
[55] = system: HCT-116
[56] = system: SF-295
[57] = system: NCI-H226
[58] = system: HL-60
[59] = system: SF-539

**Q.** With O=C1Nc2ccc(S(=O)(=O)N(CCO)CCO)cc2/C1=C1/Nc2ccccc2C1=O as the compound, how does the GI50 [1] read?
**A.** > 100 µM (inactive)

**Q.** What about the GI50 [2] of the same compound?
**A.** > 100 µM (inactive)

**Q.** And the GI50 [3]?
**A.** > 100 µM (inactive)

**Q.** What about the GI50 [4] of the same compound?
**A.** > 100 µM (inactive)

**Q.** What about the GI50 [5] of the same compound?
**A.** > 100 µM (inactive)

**Q.** What about the GI50 [6] of the same compound?
**A.** > 100 µM (inactive)

**Q.** What about the GI50 [7] of the same compound?
**A.** > 100 µM (inactive)

**Q.** And the GI50 [8]?
**A.** 2.82 µM (inactive)

**Q.** What about the GI50 [9] of the same compound?
**A.** 96.6 µM (inactive)

**Q.** What about the GI50 [10] of the same compound?
**A.** > 100 µM (inactive)

**Q.** What about the GI50 [11] of the same compound?
**A.** 40.5 µM (inactive)

**Q.** And the GI50 [12]?
**A.** > 100 µM (inactive)

**Q.** And the GI50 [13]?
**A.** > 100 µM (inactive)

**Q.** What about the GI50 [14] of the same compound?
**A.** 2.5 µM (inactive)

**Q.** And the GI50 [15]?
**A.** > 100 µM (inactive)

**Q.** What about the GI50 [16] of the same compound?
**A.** > 100 µM

**Q.** And the GI50 [17]?
**A.** > 100 µM (inactive)

**Q.** And the GI50 [18]?
**A.** > 100 µM (inactive)

**Q.** And the GI50 [19]?
**A.** > 100 µM (inactive)

**Q.** And the GI50 [20]?
**A.** > 100 µM (inactive)

**Q.** What about the GI50 [21] of the same compound?
**A.** 48 µM (inactive)

**Q.** And the GI50 [22]?
**A.** > 100 µM (inactive)

**Q.** What about the GI50 [23] of the same compound?
**A.** 0.615 µM (active)

**Q.** What about the GI50 [24] of the same compound?
**A.** 62.4 µM (inactive)

**Q.** What about the GI50 [25] of the same compound?
**A.** 18.2 µM (inactive)

**Q.** What about the GI50 [26] of the same compound?
**A.** > 100 µM (inactive)

**Q.** What about the GI50 [27] of the same compound?
**A.** 0.679 µM (active)

**Q.** And the GI50 [28]?
**A.** > 100 µM (inactive)

**Q.** And the GI50 [29]?
**A.** > 100 µM (inactive)

**Q.** And the GI50 [30]?
**A.** 8.05 µM (inactive)

**Q.** What about the GI50 [31] of the same compound?
**A.** > 100 µM (inactive)

**Q.** And the GI50 [32]?
**A.** > 100 µM (inactive)

**Q.** And the GI50 [33]?
**A.** > 100 µM (inactive)

**Q.** What about the GI50 [34] of the same compound?
**A.** 1.91 µM (inactive)

**Q.** And the GI50 [35]?
**A.** > 100 µM (inactive)

**Q.** And the GI50 [36]?
**A.** > 100 µM (inactive)

**Q.** And the GI50 [37]?
**A.** 1.56 µM (inactive)

**Q.** And the GI50 [38]?
**A.** > 100 µM (inactive)

**Q.** And the GI50 [39]?
**A.** 30.3 µM (inactive)

**Q.** And the GI50 [40]?
**A.** > 100 µM (inactive)

**Q.** And the GI50 [41]?
**A.** > 100 µM (inactive)

**Q.** And the GI50 [42]?
**A.** > 100 µM (inactive)

**Q.** And the GI50 [43]?
**A.** > 100 µM (inactive)

**Q.** What about the GI50 [44] of the same compound?
**A.** > 100 µM (inactive)

**Q.** What about the GI50 [45] of the same compound?
**A.** > 100 µM (inactive)

**Q.** And the GI50 [46]?
**A.** 17.7 µM (inactive)

**Q.** And the GI50 [47]?
**A.** > 100 µM (inactive)

**Q.** What about the GI50 [48] of the same compound?
**A.** > 100 µM (inactive)

**Q.** And the GI50 [49]?
**A.** > 100 µM (inactive)

**Q.** And the GI50 [50]?
**A.** > 100 µM (inactive)

**Q.** And the GI50 [51]?
**A.** 13.3 µM (inactive)

**Q.** What about the GI50 [52] of the same compound?
**A.** > 100 µM (inactive)

**Q.** And the GI50 [53]?
**A.** > 100 µM (inactive)

**Q.** What about the GI50 [54] of the same compound?
**A.** > 100 µM (inactive)

**Q.** What about the GI50 [55] of the same compound?
**A.** 51.6 µM (inactive)

**Q.** What about the GI50 [56] of the same compound?
**A.** > 100 µM (inactive)

**Q.** What about the GI50 [57] of the same compound?
**A.** > 100 µM (inactive)

**Q.** Which GI50 [1] does the source give for CCCCN1C(=O)CC2[C@@H]3CCc4cc(OC)ccc4C3CC[C@]2(C)C1=O (some centres undefined) here?
**A.** > 10 µM (inactive)

**Q.** And the GI50 [2]?
**A.** > 10 µM (inactive)

**Q.** What about the GI50 [3] of the same compound?
**A.** > 10 µM (inactive)

**Q.** What about the GI50 [4] of the same compound?
**A.** > 10 µM (inactive)

**Q.** And the GI50 [5]?
**A.** 7.93 µM (inactive)

**Q.** What about the GI50 [6] of the same compound?
**A.** > 10 µM (inactive)

**Q.** And the GI50 [7]?
**A.** > 10 µM (inactive)

**Q.** What about the GI50 [8] of the same compound?
**A.** 3.1 µM (inactive)

**Q.** And the GI50 [9]?
**A.** > 10 µM (inactive)

**Q.** And the GI50 [10]?
**A.** > 10 µM (inactive)

**Q.** And the GI50 [11]?
**A.** > 10 µM (inactive)

**Q.** And the GI50 [58]?
**A.** 5.04 µM (inactive)

**Q.** And the GI50 [12]?
**A.** > 10 µM (inactive)

**Q.** What about the GI50 [13] of the same compound?
**A.** > 10 µM (inactive)

**Q.** And the GI50 [14]?
**A.** > 10 µM (inactive)

**Q.** And the GI50 [15]?
**A.** > 10 µM (inactive)

**Q.** What about the GI50 [16] of the same compound?
**A.** > 10 µM

**Q.** What about the GI50 [18] of the same compound?
**A.** > 10 µM (inactive)

**Q.** And the GI50 [19]?
**A.** > 10 µM (inactive)

**Q.** What about the GI50 [20] of the same compound?
**A.** > 10 µM (inactive)

**Q.** And the GI50 [21]?
**A.** > 10 µM (inactive)

**Q.** And the GI50 [22]?
**A.** > 10 µM (inactive)

**Q.** What about the GI50 [23] of the same compound?
**A.** > 10 µM (inactive)

**Q.** What about the GI50 [24] of the same compound?
**A.** > 10 µM (inactive)

**Q.** And the GI50 [25]?
**A.** > 10 µM (inactive)

**Q.** And the GI50 [26]?
**A.** > 10 µM (inactive)

**Q.** What about the GI50 [27] of the same compound?
**A.** > 10 µM (inactive)

**Q.** What about the GI50 [28] of the same compound?
**A.** > 10 µM (inactive)

**Q.** And the GI50 [29]?
**A.** > 10 µM (inactive)

**Q.** What about the GI50 [30] of the same compound?
**A.** > 10 µM (inactive)

**Q.** And the GI50 [31]?
**A.** > 10 µM (inactive)

**Q.** And the GI50 [32]?
**A.** > 10 µM (inactive)

**Q.** What about the GI50 [34] of the same compound?
**A.** 6.85 µM (inactive)

**Q.** What about the GI50 [35] of the same compound?
**A.** > 10 µM (inactive)

**Q.** And the GI50 [36]?
**A.** > 10 µM (inactive)

**Q.** What about the GI50 [37] of the same compound?
**A.** > 10 µM (inactive)

**Q.** What about the GI50 [38] of the same compound?
**A.** > 10 µM (inactive)

**Q.** And the GI50 [39]?
**A.** > 10 µM (inactive)

**Q.** And the GI50 [40]?
**A.** > 10 µM (inactive)

**Q.** And the GI50 [41]?
**A.** > 10 µM (inactive)

**Q.** What about the GI50 [59] of the same compound?
**A.** > 10 µM (inactive)

**Q.** And the GI50 [42]?
**A.** > 10 µM (inactive)

**Q.** And the GI50 [43]?
**A.** > 10 µM (inactive)

**Q.** What about the GI50 [44] of the same compound?
**A.** > 10 µM (inactive)

**Q.** What about the GI50 [45] of the same compound?
**A.** > 10 µM (inactive)

**Q.** What about the GI50 [46] of the same compound?
**A.** > 10 µM (inactive)

**Q.** What about the GI50 [47] of the same compound?
**A.** > 10 µM (inactive)

**Q.** And the GI50 [48]?
**A.** > 10 µM (inactive)

**Q.** What about the GI50 [49] of the same compound?
**A.** > 10 µM (inactive)

**Q.** And the GI50 [50]?
**A.** > 10 µM (inactive)

**Q.** What about the GI50 [51] of the same compound?
**A.** > 10 µM (inactive)

**Q.** What about the GI50 [52] of the same compound?
**A.** > 10 µM (inactive)

**Q.** And the GI50 [53]?
**A.** > 10 µM (inactive)

**Q.** And the GI50 [54]?
**A.** > 10 µM (inactive)

**Q.** And the GI50 [55]?
**A.** > 10 µM (inactive)

**Q.** And the GI50 [56]?
**A.** > 10 µM (inactive)

**Q.** What about the GI50 [57] of the same compound?
**A.** > 10 µM (inactive)
